The source of these data is patent publication US8486986B2, “Microbiocides” (Syngenta Crop Protection LLC, priority 2007, dated 2013).

The term melting point denotes the temperature of the solid-liquid transition.

As to `CC(Cc1c(-c2ccc(F)cc2)sc(Cl)c1Cl)NC(=O)c1cn(C)nc1C(F)(F)F` (stereo not shown) [Compound 7.72, 1-methyl-3-trifluoromethyl-1H-pyrazole-4-carboxylic acid {2-[4,5-dichloro-2-(4-fluorophenyl)-thiophen 3-yl]1-methylethyl}amide], the melting point is 126 to 130 °C.
